From patent US20220401514A1, “ANTIMICROBIAL, BACTERIOPHAGE-DERIVED POLYPEPTIDES AND THEIR USE AGAINST GRAM-NEGATIVE AND ACID-FAST BACTERIA” (CONTRAFECT CORPORATION, priority 2019, published 2022)

Legend:
[1] = tested on: P. aeruginosa strain CFS-1292; assay: Checkerboard assay (FICI) with antibiotics, P. aeruginosa; type: cell-based, Pseudomonas aeruginosa; conditions: P. aeruginosa CFS-1292
Protocol: Any known method to assess MIC may be used.
Checkerboards are constructed by first preparing columns of e.g., a 96-well polypropylene microtiter plate, wherein each well has the same amount of antibiotic diluted 2-fold along the horizontal axis. […] Bacteria are added to the drug combinations at concentrations of 1×10^5 […] in CAA, for example, with or without human serum or pulmonary surfactant. […] Summation fractional inhibitory concentrations (ΣFICs) are calculated for each drug and the minimum ΣFIC value (ΣFICmin) is used to determine the effect of the Chp peptide/antibiotic combination.
(§1) Checkerboard assays. […] Checkerboards were constructed by first preparing columns of a 96-well polypropylene microtiter plate, in which each well had the same amount of antibiotic diluted 2-fold along the horizontal axis. […] Summation fractional inhibitory concentration index (FICIs) were calculated for each drug and the minimum FICI was used to determine synergy. FICIs were calculated as follows: FICI=FIC A+FIC B, where FIC A is the MIC of each antibiotic in the combination/MIC of the each antibiotic alone, and FIC B is the MIC of each Chp peptide in the combination/MIC of each Chp peptide alone. The combination is considered synergistic when the FICI is ≤0.5, strongly additive when the FICI is >0.5 to <1, additive with the FICI is 1-<2, and antagonistic when the FICI is ≥2.
In the checkerboard assay, fractional inhibitory concentration index (FICI) values are calculated.

[2] = tested on: Klebsiella pneumoniae strain 1139; assay: Checkerboard assay (FICI) with antibiotics, K. pneumoniae; type: cell-based
Protocol: as §1

[3] = tested on: Acinetobacter baumannii strain 30; assay: Checkerboard assay (FICI) with antibiotics, A. baumannii; type: cell-based; conditions: checkerboard
Protocol: as §1
The results are shown below in Tables 22-27.

[4] = tested on: carbapenem-resistant P. aeruginosa clinical isolate CFS-1292; assay: MIC by modified CLSI broth microdilution against P. aeruginosa CFS-1292 (CAA, CAA + human serum); type: cell-based, Pseudomonas aeruginosa; conditions: for MIC (μg/mL) against CFS-1292 in 100% CAA (1st run/2nd run): 1st run or single value
Enterobacter cloacae = assay: microbe, parasite or virus in culture; type: cell-based; conditions: Enterobacter cloacae ATCC 13047; CAA supplemented with human serum
Protocol: (§2) Determination of Minimal Inhibitory Concentrations (MIC).
(§3) Additional MIC testing was performed for several peptides against the ESKAPE pathogens Escherichia coli, Enterobacter cloacae, Klebsiella pneumoniae, and Acinetobacter baumannii, in CAA supplemented with human serum (Table D).

Escherichia coli = assay: microbe, parasite or virus in culture; type: cell-based; conditions: Escherichia coli ATCC 25922; CAA supplemented with human serum
Protocol: as §2, §3

Klebsiella pneumoniae = type: cell-based; conditions: Klebsiella pneumoniae HM-44; CAA supplemented with human serum
Protocol: as §2, §3

Acinetobacter baumannii = assay: microbe, parasite or virus in culture; type: cell-based; conditions: Acinetobacter baumannii ATCC BAA 747; CAA supplemented with human serum
[5] = Stability assessment in 100% CAA; type: in vitro ADME; parameters: unit not given beside the values
Protocol: Stability was assessed after incubation in 100% human serum at 37° C. after 10 minutes, 1 hour, and 2 hours.
Stability assessment was further conducted in 100% CAA and rabbit serum using the same methodology discussed above.

M. smegmatis = assay: 45 hr MIC against M. smegmatis (NTM), Mueller Hinton broth; type: cell-based, Mycobacterium smegmatis; conditions: M. smegmatis MC^2 155, Run #1
[6] = checkerboard, in combination with Chp4-M1
[7] = checkerboard, in combination with Chp6-M1
[8] = checkerboard, in combination with Chp10-M1
[9] = checkerboard, in combination with Unp2-M1

Molecule | Antibiotic FIC ([1]; combined with Chp2-M1) | Antibiotic FIC ([1]; combined with Chp2) | Antibiotic FIC ([1]; combined with Chp4-M1) | Antibiotic FIC ([1]; combined with Chp6-M1) | Antibiotic FIC ([1]; combined with Chp10-M1) | Antibiotic FIC [2, 6] | Antibiotic MIC [2, 6] [µg/mL] | Antibiotic FIC [2, 7] | Antibiotic MIC [2, 7] [µg/mL] | Antibiotic FIC [2, 8] | Antibiotic MIC [2, 8] [µg/mL] | Antibiotic FIC [2, 9] | Antibiotic MIC [2, 9] [µg/mL] | Antibiotic FIC ([2]; combined with Chp2) | Antibiotic MIC in checkerboard ([2]; combined with Chp2) [µg/mL] | Antibiotic FIC ([2]; combined with Chp2-M1) | Antibiotic MIC in checkerboard ([2]; combined with Chp2-M1) [µg/mL] | MIC (μg/mL) against CFS-1292 in 100% CAA (1st run/2nd run) [4] [µg/mL] | MIC (100% CAA) [5] | 45 hr MIC (M. smegmatis) [µg/mL] | other results
C[C@H]1[C@H](NC(=O)/C(=N\OC(C)(C)C(=O)O)c2csc(N)n2)C(=O)N1S(=O)(=O)O [Aztreonam] | 0.5 | 0.25 | 0.25 | 0.25 | 0.25 | 0.5 | 0.007812 | 0.25 | 0.007812 | 0.25 | 0.007812 | 0.007812 | 0.007812 | 0.5 | 0.007812 | 0.5 | 0.007812 | – | – | – | Antibiotic FIC ([3]; in combination with Chp2): 0.25; Antibiotic MIC ([3]; in combination with Chp2): 8 µg/mL; Antibiotic FIC ([3]; in combination with Chp2-M1): 0.25; Antibiotic MIC ([3]; in combination with Chp2-M1): 8 µg/mL; Antibiotic FIC ([3]; in combination with Chp4-M1): 0.25; Antibiotic MIC ([3]; in combination with Chp4-M1): 16 µg/mL; Antibiotic FIC ([3]; in combination with Chp6-M1): 0.25; Antibiotic MIC ([3]; in combination with Chp6-M1): 8 µg/mL; Antibiotic FIC ([3]; in combination with Chp10-M1): 0.25; Antibiotic MIC ([3]; in combination with Chp10-M1): 8 µg/mL; Antibiotic FIC ([3]; in combination with Unp2-M1): 0.25; Antibiotic MIC ([3]; in combination with Unp2-M1): 16 µg/mL
C[C@H]1COc2c(N3CCN(C)CC3)c(F)cc3c(=O)c(C(=O)O)cn1c23 [Levofloxacin] | 0.25 | 0.25 | 0.5 | 0.25 | 0.25 | 0.25 | 0.007812 | 0.25 | 0.007812 | 0.125 | 0.007812 | 0.01562 | 0.01562 | 0.25 | 0.007812 | 0.25 | 0.007812 | – | – | – | Antibiotic FIC ([1]; combined with Unp2-M1): 0.25; Antibiotic FIC ([3]; in combination with Chp2): 0.25; Antibiotic FIC ([3]; in combination with Chp2-M1): 0.25; Antibiotic FIC ([3]; in combination with Chp4-M1): 0.25; Antibiotic FIC ([3]; in combination with Chp6-M1): 0.25; Antibiotic FIC ([3]; in combination with Chp10-M1): 0.25; Antibiotic FIC ([3]; in combination with Unp2-M1): 0.25
MAGKKMVSKGKDRQIFRKTADRTKKMNVRPLLYRGGIRL [Chp12] | – | – | – | – | – | – | – | – | – | – | – | – | – | – | – | – | – | 8 | 8 | 64 | MIC (Enterobacter cloacae): 32 µg/mL; MIC (Escherichia coli): 8 µg/mL; MIC (Klebsiella pneumoniae): 16 µg/mL; MIC (Acinetobacter baumannii): 1 µg/mL
MAKKMTKGKDRQVFRKTADRTKKLNVRPLLYRGGIRL [Chp11] | – | – | – | – | – | – | – | – | – | – | – | – | – | – | – | – | – | 16 | 16 | 32 | MIC (μg/mL) against CFS-1292 in CAA + […] human serum [4]: 4 µg/mL; MIC (Enterobacter cloacae): 32 µg/mL; MIC (Escherichia coli): 2 µg/mL; MIC (Klebsiella pneumoniae): 16 µg/mL; MIC (Acinetobacter baumannii): 32 µg/mL
MAKRHKIPQRASQHSFTRHAQKVHPKNVPRLPMRGGIRL [AVQ244] | – | – | – | – | – | – | – | – | – | – | – | – | – | – | – | – | – | 64 | 64 | 64 | –
MCKKVCKKCPKKGPKNAPKIGAFYERKTPRLKQST [CPAR39] | – | – | – | – | – | – | – | – | – | – | – | – | – | – | – | – | – | 4 | 4 | >128 | MIC (μg/mL) against CFS-1292 in CAA + […] human serum [4]: 1 µg/mL; MIC (μg/mL) against CFS-1292 in CAA + […] human serum ([4]; listed as CPAR39 + DTT): 4 µg/mL; MIC (μg/mL) against CFS-1292 in CAA + […] human serum ([4]; listed as CPAR39 − DTT): 64 µg/mL
